Source: PubChem BioAssay (NCI)
Several values for one entry are separate records, joined by “and”; a condition that tells them apart may be missing. Identical values can stand only once.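 Step 1: Grow cells in 96-well plates. Step 2: Expose to compound for 48 hours at 5 concentrations. Step 3: Interpolate endpoints linearly; if unreached, use highest concentration. TGI denotes the concentration required for complete inhibition of growth.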

Experiments:
Test in all cases: growth of human tumour cells (NCI), 48 h
NCI-H522 lung = system: NCI-H522 lung
HOP-92 NSCLC = system: HOP-92 NSCLC
DMS 273 small cell lung = system: DMS 273 small cell lung
OVCAR-3 ovarian = system: OVCAR-3 ovarian
MALME-3M melanoma = system: MALME-3M melanoma
A549 NSCLC = system: A549 NSCLC
DLD-1 colon = system: DLD-1 colon
LOX IMVI melanoma = system: LOX IMVI melanoma
SNB-78 CNS = system: SNB-78 CNS
HOP-18 NSCLC = system: HOP-18 NSCLC
PC-3 prostate = system: PC-3 prostate
MDA-MB-231 breast = system: MDA-MB-231 breast

Row | Compound | TGI (NCI-H522 lung) [µM] | TGI (HOP-92 NSCLC) [µM] | TGI (DMS 273 small cell lung) [µM] | TGI (OVCAR-3 ovarian) | TGI (MALME-3M melanoma) [µM] | TGI (A549 NSCLC) | TGI (DLD-1 colon) | TGI (LOX IMVI melanoma) [µM] | TGI (SNB-78 CNS) [µM] | TGI (HOP-18 NSCLC) [µM] | TGI (PC-3 prostate) [µM] | TGI (MDA-MB-231 breast) [µM]
1 | COC(=O)n1c(CBr)c(Br)c2ccccc21 | 34.5 | 68 | > 100 | 50.9 µM | > 100 | > 100 µM | > 100 µM |  |  |  |  | 
2 | CC(=O)Nc1ccc(-c2nnc(SCC(=O)Nc3ccccc3C)o2)cc1 | > 100 | > 100 | > 100 | > 100 µM | > 100 | > 100 µM | > 100 µM | > 100 | > 100 | > 100 |  | 
3 | COc1ccc(C2=CN3CCC[C@H]3C=C2c2cc(O)c(OC)c(OC)c2)cc1OC | 0.026 | 0.0294 | 0.0216 | 0.0669 µM and 0.0274 µM | 0.0333 | 0.274 µM and 0.172 µM | 0.0627 µM and 0.0119 µM | 0.00717 | 0.0391 | 0.0504 | 0.0538 | 0.15
4 | CN1CCCCC(C(O)(c2ccccc2)c2ccccc2)C1=O (configuration not stated) | > 100 | > 100 | > 100 | > 100 µM | > 100 | > 100 µM | > 100 µM | > 100 | > 100 | > 100 |  | 
5 | COC(=O)c1cccc(C(=O)OC)c1 | > 100 | > 100 | > 100 |  | > 100 | > 100 µM | > 100 µM | > 100 | > 100 | > 100 |  | 
6 | Cc1cc(N=C2C=C(Nc3cc(C)on3)C(=O)c3ccccc32)no1 | > 100 | 52.6 | > 100 | > 100 µM | 53 | > 100 µM | > 100 µM | > 61.5 | 68.1 | 92.2 | > 100 | 28.7
7 | Nc1nc(SCCC/C=C/I)nc2c1ncn2C1OC(CO)C(O)C1O (configuration not stated) | > 202 | > 202 | > 202 | > 202 µM | > 202 | > 202 µM | > 202 µM | > 202 | > 202 | > 202 |  | 
8 | O=[N+]([O-])c1ccc(Cl)cc1C=NC12CC3CC(CC(C3)C1)C2 | > 100 | > 100 |  | > 100 µM | > 94 | > 100 µM |  | > 70.3 |  |  | > 100 | > 100
9 | COC1/C=C/C(C)C(C(C)C(OC)C(C)CCC(=O)C(C)C(C/C=C/N(C)C=O)OC)OC(=O)/C=C/C=C(\C)CC(OC)C(OC)C2=CC(=O)O[C@@H](C(C)C(OC)CC(OC)/C=C/C(C)C(O)C1)[C@H]2O (some centres not stated) | 0.286 | 0.115 |  | 0.277 µM | 0.493 | 0.781 µM |  | 0.0755 |  |  | 0.35 | 0.247
10 | CC1CCC2(CC1)N=C1CCC(C)CC1C1(CCC(C)CC1)N2 (configuration not stated) | > 100 | > 100 |  | > 100 µM | > 100 | > 100 µM |  | > 100 |  |  | > 100 | > 100
11 | NC(=O)CS(=O)CC(N)C(=O)O (configuration not stated) | > 100 | > 100 |  | > 100 µM | > 100 | > 100 µM |  | > 100 |  |  | > 100 | > 100
